Measurements as given in US9145351B2, “Azole derivatives, methods for producing the same, intermediate thereof, agro-horticultural agents” (KUREHA CORPORATION, priority 2009, dated 2015).

How the values were obtained:
Assay type in all cases: cell-based
Alternaria alternata = assay: Plate medium fungicidal assay, Alternaria blotch A.m (Experimental Example 5)
Procedure: (§1) In this Experimental Example, the fungicidal effects of the inventive compounds on various phytopathogenic fungi for plants and hazardous microorganism for industrial materials were examined by the methods described below. Each inventive compound was dissolved in 2 ml of dimethyl sulfoxide. 0.6 ml of this solution was added to 60 nil of a PDA medium (potato dextrose agar medium) at about 60 degrees C., which was mixed thoroughly in a 100-ml conical flask, and poured into a dish, where it was solidified, thereby obtaining a plate medium containing the inventive compound at 50 mg/L and 5 mg/L. On the other hand, a subject microorganism previously cultured on a plate medium was cut out using a cork borer whose diameter was 4 mm, and inoculated to the test compound-containing plate medium described above. […] The growth degree of the microorganism on the test compound-containing plate medium thus observed was compared with the growth degree of the microorganism in the untreated group, and % mycelial growth inhibition was calculated by the following equation. R=100(dc−dt)/dc wherein R=% mycelial extension inhibition, dc=flora diameter in untreated plate, dt=flora diameter in treated plate. The results obtained as described above were evaluated as one of the 5 grades according to the following criteria. […] Alternaria blotch (Alternaria alternata) A.m

Fusarium graminearum = assay: microbe, parasite or virus in culture
Giberella fujikuroi = assay: Plate medium fungicidal assay, rice bakanae disease G.f (Experimental Example 5)
Procedure: as §1, with “Rice bakanae disease (Giberella fujikuroi) G.f” for “Alternaria blotch (Alternaria alternata) A.m”

Pyricularia oryzae = assay: microbe, parasite or virus in culture
Sclerotinia sclerotiorum = assay: Plate medium fungicidal assay, Sclerotinia rot S.s (Experimental Example 5)
Procedure: as §1, with “Sclerotinia rot (Sclerotinia sclerotiorum) S.s” for “Alternaria blotch (Alternaria alternata) A.m”

Ustilago nuda = assay: Plate medium fungicidal assay, barley loose smut U.n (Experimental Example 5)
Procedure: as §1, with “Barley loose smut (Ustilago nuda) U.n” for “Alternaria blotch (Alternaria alternata) A.m”

[1] = plate medium containing compound at 5 mg/L
[2] = plate medium containing compound at 50 mg/L

| Compound | Growth inhibition grade, A.m (Alternaria alternata; plate medium, 5 mg/L) | Growth inhibition grade, A.m (Alternaria alternata; plate medium, 50 mg/L) | Growth inhibition grade, F.g (Fusarium graminearum; plate medium, 5 mg/L) | Growth inhibition grade, F.g (Fusarium graminearum; plate medium, 50 mg/L) | Growth inhibition grade, G.f (Giberella fujikuroi; plate medium, 5 mg/L) | Growth inhibition grade, G.f (Giberella fujikuroi; plate medium, 50 mg/L) | Growth inhibition grade, P.o (Pyricularia oryzae; plate medium, 5 mg/L) | Growth inhibition grade, P.o (Pyricularia oryzae; plate medium, 50 mg/L) | Growth inhibition grade, S.s (Sclerotinia sclerotiorum; plate medium, 5 mg/L) | Growth inhibition grade, S.s (Sclerotinia sclerotiorum; plate medium, 50 mg/L) | Growth inhibition grade, U.n (Ustilago nuda; plate medium, 5 mg/L) | Growth inhibition grade, U.n (Ustilago nuda; plate medium, 50 mg/L) | Growth inhibition grade, A.m (Alternaria alternata; [1]) | Growth inhibition grade, A.m (Alternaria alternata; [2]) | Growth inhibition grade, F.g (Fusarium graminearum; [1]) | Growth inhibition grade, F.g (Fusarium graminearum; [2]) | Growth inhibition grade, G.f (Giberella fujikuroi; [1]) | Growth inhibition grade, G.f (Giberella fujikuroi; [2]) | Growth inhibition grade, P.o (Pyricularia oryzae; [1]) | Growth inhibition grade, P.o (Pyricularia oryzae; [2]) | other results |
| --- | --- | --- | --- | --- | --- | --- | --- | --- | --- | --- | --- | --- | --- | --- | --- | --- | --- | --- | --- | --- | --- |
| C[C@]1(CCl)CC[C@H](Cc2cccc(Cl)c2)[C@]1(O)Cn1cncn1 (relative stereo) [Compound I-374] | 4 (% Mycerial growth inhibition of less than 80 to 60% or higher) | 5 (% Mycerial growth inhibition of 80% or higher) | 5 (% Mycerial growth inhibition of 80% or higher) | 5 (% Mycerial growth inhibition of 80% or higher) | 5 (% Mycerial growth inhibition of 80% or higher) | 5 (% Mycerial growth inhibition of 80% or higher) | 5 (% Mycerial growth inhibition of 80% or higher) | 5 (% Mycerial growth inhibition of 80% or higher) | 5 (% Mycerial growth inhibition of 80% or higher) | 5 (% Mycerial growth inhibition of 80% or higher) | 4 (% Mycerial growth inhibition of less than 80 to 60% or higher) | 5 (% Mycerial growth inhibition of 80% or higher) |  |  |  |  |  |  |  |  |  |
| O[C@]1(Cn2cncn2)[C@H](Cc2ccc(Cl)cc2)CCC1(CCl)CCl (relative stereo) [Compound I-203, cis-5-(4-chlorobenzyl)-2,2-bis(chloromethyl)-1-(1H-1,2,4-triazol-1-yl)methylcyclopentanol] | 5 (% Mycerial growth inhibition of 80% or higher) | 5 (% Mycerial growth inhibition of 80% or higher) | 5 (% Mycerial growth inhibition of 80% or higher) | 5 (% Mycerial growth inhibition of 80% or higher) | 5 (% Mycerial growth inhibition of 80% or higher) | 5 (% Mycerial growth inhibition of 80% or higher) | 5 (% Mycerial growth inhibition of 80% or higher) | 5 (% Mycerial growth inhibition of 80% or higher) | 5 (% Mycerial growth inhibition of 80% or higher) | 5 (% Mycerial growth inhibition of 80% or higher) | 5 (% Mycerial growth inhibition of 80% or higher) | 5 (% Mycerial growth inhibition of 80% or higher) |  |  |  |  |  |  |  |  |  |
| CC1(C)CCC(Cc2ccc(Cl)cc2)C1(O)Cn1ncnc1S (racemic) [compound (2)] | 4 (% Mycerial growth inhibition of less than 80 to 60% or higher) | 4 (% Mycerial growth inhibition of less than 80 to 60% or higher) | 3 (% Mycelial growth inhibition of less than 60 to 40% or higher) | 5 (% Mycerial growth inhibition of 80% or higher) | 3 (% Mycelial growth inhibition of less than 60 to 40% or higher) | 4 (% Mycerial growth inhibition of less than 80 to 60% or higher) | 4 (% Mycerial growth inhibition of less than 80 to 60% or higher) | 4 (% Mycerial growth inhibition of less than 80 to 60% or higher) | 3 (% Mycelial growth inhibition of less than 60 to 40% or higher) | 5 (% Mycerial growth inhibition of 80% or higher) | 1 (% Mycerial growth inhibition of less than 20%) | 3 (% Mycelial growth inhibition of less than 60 to 40% or higher) |  |  |  |  |  |  |  |  |  |
| C[C@]1(CCl)CC[C@@H](Cc2ccc(-c3ccccc3)cc2)[C@]1(O)Cn1cncn1 (relative stereo) [Compound I-82] |  |  |  |  |  |  |  |  |  |  |  |  | 5 (% Mycerial growth inhibition of 80% or higher) | 5 (% Mycerial growth inhibition of 80% or higher) | 5 (% Mycerial growth inhibition of 80% or higher) | 5 (% Mycerial growth inhibition of 80% or higher) | 5 (% Mycerial growth inhibition of 80% or higher) | 5 (% Mycerial growth inhibition of 80% or higher) | 5 (% Mycerial growth inhibition of 80% or higher) | 5 (% Mycerial growth inhibition of 80% or higher) | Growth inhibition grade, S.s (Sclerotinia sclerotiorum; [1]): 5 (% Mycerial growth inhibition of 80% or higher); Growth inhibition grade, S.s (Sclerotinia sclerotiorum; [2]): 5 (% Mycerial growth inhibition of 80% or higher); Growth inhibition grade, U.n (Ustilago nuda; [1]): 5 (% Mycerial growth inhibition of 80% or higher); Growth inhibition grade, U.n (Ustilago nuda; [2]): 5 (% Mycerial growth inhibition of 80% or higher) |
| CC[C@]1(CCl)CC[C@@H](Cc2ccccc2)[C@]1(O)Cn1cncn1 (relative stereo) [Compound I-97] |  |  |  |  |  |  |  |  |  |  |  |  | 4 (% Mycerial growth inhibition of less than 80 to 60% or higher) | 5 (% Mycerial growth inhibition of 80% or higher) | 5 (% Mycerial growth inhibition of 80% or higher) | 5 (% Mycerial growth inhibition of 80% or higher) | 5 (% Mycerial growth inhibition of 80% or higher) | 5 (% Mycerial growth inhibition of 80% or higher) | 5 (% Mycerial growth inhibition of 80% or higher) | 5 (% Mycerial growth inhibition of 80% or higher) | Growth inhibition grade, S.s (Sclerotinia sclerotiorum; [1]): 5 (% Mycerial growth inhibition of 80% or higher); Growth inhibition grade, S.s (Sclerotinia sclerotiorum; [2]): 5 (% Mycerial growth inhibition of 80% or higher); Growth inhibition grade, U.n (Ustilago nuda; [1]): 5 (% Mycerial growth inhibition of 80% or higher); Growth inhibition grade, U.n (Ustilago nuda; [2]): 5 (% Mycerial growth inhibition of 80% or higher) |
